Consider six compounds from patent US9936701B2, “Herbicidal compounds” (Syngenta Participations AG, priority 2013, dated 2018).

The test system of one assay is a variety of test species. Nature of the assay: Post-emergence herbicidal activity (glasshouse, sprayed after 8 days cultivation, evaluated after 13 days). Type of assay: in vivo. The arrangement: key: 5=total damage to plant; 0=no damage to plant. Particulars: Abutilon theophrasti, rate 1000 g/Ha, scale 0-5. As to the method:
(§1) Seeds of a variety of test species were sown in standard soil in pots. After 8 days cultivation (post-emergence) under controlled conditions in a glasshouse (at 24/16° C., day/night; 14 hours light; 65% humidity), the plants were sprayed with an aqueous spray solution derived from the formulation of the technical active ingredient in acetone/water (50:50) solution containing 0.5% Tween 20 (polyoxyethelyene sorbitan monolaurate, CAS RN 9005-64-5). The test plants were then grown in a glasshouse under controlled conditions (at 24/16° C., day/night; 14 hours light; 65% humidity) and watered twice daily. After 13 days, the test was evaluated (5=total damage to plant; 0=no damage to plant).
Turning to `CCCC1=C(Cl)C(=O)N(c2noc(C(C)C)c2C#N)C1O` (stereo not drawn) [A69], the “ABUTH (Abutilon theophrasti) damage score, application post-emergence” value is 4.
For `CCCC1=C(Cl)C(=O)N(c2noc(C)c2C#N)C1O` (stereo not drawn) [A70], the “ABUTH (Abutilon theophrasti) damage score, application post-emergence” value is given as 2.
On the same count and under the same terms, in the case of `CCCC1=C(Br)C(=O)N(c2noc(C(C)(C)C#N)c2C#N)C1OC(=O)CC` (stereo not drawn) [A74] it was 5; in that of `CC(=O)OC1C(C)=C(Cl)C(=O)N1c1cc(C(C)(C)C)on1` (stereo not drawn) [A75], 5; in that of `CC1=C(Cl)C(=O)N(c2cc(C(C)(C)C)on2)C1OC(=O)C(C)C` (stereo not drawn) [A76], 5.
Still for that read-out and setting: in the case of `CC1=C(Cl)C(=O)N(c2cc(C(C)(C)C)on2)C1OC(=O)C(C)(C)C` (stereo not drawn) [A77] it was 1.

Still in this assay, the particulars now being: Alopecurus myosuroides, rate 1000 g/Ha, scale 0-5.
`CCCC1=C(Cl)C(=O)N(c2noc(C(C)C)c2C#N)C1O` (stereo not drawn) [A69]: the “ALOMY (Alopecurus myosuroides) damage score, application post-emergence” value was 2.
On the same count and under the same terms, in the case of `CCCC1=C(Cl)C(=O)N(c2noc(C)c2C#N)C1O` (stereo not drawn) [A70] it was 3.
The same measure, in the same setting: in the case of `CCCC1=C(Br)C(=O)N(c2noc(C(C)(C)C#N)c2C#N)C1OC(=O)CC` (stereo not drawn) [A74] it was 5.
On the same count and under the same terms, in the case of `CC(=O)OC1C(C)=C(Cl)C(=O)N1c1cc(C(C)(C)C)on1` (stereo not drawn) [A75] it was 5.
In the case of `CC1=C(Cl)C(=O)N(c2cc(C(C)(C)C)on2)C1OC(=O)C(C)C` (stereo not drawn) [A76], the “ALOMY (Alopecurus myosuroides) damage score, application post-emergence” value is 5.
Same read-out and setting: in the case of `CC1=C(Cl)C(=O)N(c2cc(C(C)(C)C)on2)C1OC(=O)C(C)(C)C` (stereo not drawn) [A77] it was 2.

The same assay, now with this note: Amaranthus retroflexus, rate 1000 g/Ha, scale 0-5.
For the compound `CCCC1=C(Cl)C(=O)N(c2noc(C(C)C)c2C#N)C1O` (stereo not drawn) [A69], the “AMARE (Amaranthus retroflexus) damage score, application post-emergence” value is given as 5.
The same measure, in the same setting: in the case of `CCCC1=C(Cl)C(=O)N(c2noc(C)c2C#N)C1O` (stereo not drawn) [A70] it was 5; in that of `CCCC1=C(Br)C(=O)N(c2noc(C(C)(C)C#N)c2C#N)C1OC(=O)CC` (stereo not drawn) [A74], 5; in that of `CC(=O)OC1C(C)=C(Cl)C(=O)N1c1cc(C(C)(C)C)on1` (stereo not drawn) [A75], 5.
On the same count and under the same terms, in the case of `CC1=C(Cl)C(=O)N(c2cc(C(C)(C)C)on2)C1OC(=O)C(C)C` (stereo not drawn) [A76] it was 5; in that of `CC1=C(Cl)C(=O)N(c2cc(C(C)(C)C)on2)C1OC(=O)C(C)(C)C` (stereo not drawn) [A77], 3.

The same assay, now with this note: Echinochloa crus-galli, rate 1000 g/Ha, scale 0-5.
Take `CCCC1=C(Cl)C(=O)N(c2noc(C(C)C)c2C#N)C1O` (stereo not drawn) [A69]: the “ECHCG (Echinochloa crus-galli) damage score, application post-emergence” value worked out at 5.
Still for that read-out and setting: in the case of `CCCC1=C(Cl)C(=O)N(c2noc(C)c2C#N)C1O` (stereo not drawn) [A70] it was 5; in that of `CCCC1=C(Br)C(=O)N(c2noc(C(C)(C)C#N)c2C#N)C1OC(=O)CC` (stereo not drawn) [A74], 5.
Still for that read-out and setting: in the case of `CC(=O)OC1C(C)=C(Cl)C(=O)N1c1cc(C(C)(C)C)on1` (stereo not drawn) [A75] it was 5.
On to `CC1=C(Cl)C(=O)N(c2cc(C(C)(C)C)on2)C1OC(=O)C(C)C` (stereo not drawn) [A76], for which the “ECHCG (Echinochloa crus-galli) damage score, application post-emergence” value is given as 5.
The same measure, in the same setting: in the case of `CC1=C(Cl)C(=O)N(c2cc(C(C)(C)C)on2)C1OC(=O)C(C)(C)C` (stereo not drawn) [A77] it was 3.

Staying with this assay, now noted: Setaria faberi, rate 1000 g/Ha, scale 0-5.
Turning to `CCCC1=C(Cl)C(=O)N(c2noc(C(C)C)c2C#N)C1O` (stereo not drawn) [A69], the “SETFA (Setaria faberi) damage score, application post-emergence” value was determined as 5.
The same measure, in the same setting: in the case of `CCCC1=C(Cl)C(=O)N(c2noc(C)c2C#N)C1O` (stereo not drawn) [A70] it was 5; in that of `CCCC1=C(Br)C(=O)N(c2noc(C(C)(C)C#N)c2C#N)C1OC(=O)CC` (stereo not drawn) [A74], 5; in that of `CC(=O)OC1C(C)=C(Cl)C(=O)N1c1cc(C(C)(C)C)on1` (stereo not drawn) [A75], 5.
The same measure, in the same setting: in the case of `CC1=C(Cl)C(=O)N(c2cc(C(C)(C)C)on2)C1OC(=O)C(C)C` (stereo not drawn) [A76] it was 5.
`CC1=C(Cl)C(=O)N(c2cc(C(C)(C)C)on2)C1OC(=O)C(C)(C)C` (stereo not drawn) [A77]: the “SETFA (Setaria faberi) damage score, application post-emergence” value is 2.

The assay is the same for the next values; noted with them: Zea mays, rate 1000 g/Ha, scale 0-5.
As to `CCCC1=C(Cl)C(=O)N(c2noc(C(C)C)c2C#N)C1O` (stereo not drawn) [A69], the “ZEAMX (Zea mays) damage score, application post-emergence” value (from here on “ZEAMX (Zea mays) damage score”) is recorded as 1.
For the compound `CCCC1=C(Cl)C(=O)N(c2noc(C)c2C#N)C1O` (stereo not drawn) [A70], the “ZEAMX (Zea mays) damage score” value is 1.
Turning to `CCCC1=C(Br)C(=O)N(c2noc(C(C)(C)C#N)c2C#N)C1OC(=O)CC` (stereo not drawn) [A74], the “ZEAMX (Zea mays) damage score” value was 5.
The same measure, in the same setting: in the case of `CC(=O)OC1C(C)=C(Cl)C(=O)N1c1cc(C(C)(C)C)on1` (stereo not drawn) [A75] it was 5; in that of `CC1=C(Cl)C(=O)N(c2cc(C(C)(C)C)on2)C1OC(=O)C(C)C` (stereo not drawn) [A76], 4.
The same measure, in the same setting: in the case of `CC1=C(Cl)C(=O)N(c2cc(C(C)(C)C)on2)C1OC(=O)C(C)(C)C` (stereo not drawn) [A77] it was 1.

In the next assay the test system is a variety of test species. Nature of the assay: Pre-emergence herbicidal activity (glasshouse, sprayed one day after sowing, evaluated after 13 days). Type of assay: in vivo. Set-up: key: 5=total damage to plant; 0=no damage to plant. As to conditions: ABUTH, application pre-emergence, rate 1000 g/Ha, scale 0-5. As to the method:
as §1, with “After” for “After 8 days”, “for one day (pre-emergence)” for “(post-emergence)”
Take `CCCC1=C(Cl)C(=O)N(c2noc(C(C)C)c2C#N)C1O` (stereo not drawn) [A69]: the “Pre-emergence herbicidal damage score, ABUTH” value is listed as 0.
Same read-out and setting: in the case of `CCCC1=C(Cl)C(=O)N(c2noc(C)c2C#N)C1O` (stereo not drawn) [A70] it was 0; in that of `CCCC1=C(Br)C(=O)N(c2noc(C(C)(C)C#N)c2C#N)C1OC(=O)CC` (stereo not drawn) [A74], 5; in that of `CC(=O)OC1C(C)=C(Cl)C(=O)N1c1cc(C(C)(C)C)on1` (stereo not drawn) [A75], 5.
Take `CC1=C(Cl)C(=O)N(c2cc(C(C)(C)C)on2)C1OC(=O)C(C)C` (stereo not drawn) [A76]: the “Pre-emergence herbicidal damage score, ABUTH” value is listed as 5.
For `CC1=C(Cl)C(=O)N(c2cc(C(C)(C)C)on2)C1OC(=O)C(C)(C)C` (stereo not drawn) [A77], the “Pre-emergence herbicidal damage score, ABUTH” value came out at 1.

Staying with this assay, now noted: ALOMY, application pre-emergence, rate 1000 g/Ha, scale 0-5.
In the case of `CCCC1=C(Cl)C(=O)N(c2noc(C(C)C)c2C#N)C1O` (stereo not drawn) [A69], the “Pre-emergence herbicidal damage score, ALOMY” value amounted to 0.
The same measure, in the same setting: in the case of `CCCC1=C(Cl)C(=O)N(c2noc(C)c2C#N)C1O` (stereo not drawn) [A70] it was 1.
On the same count and under the same terms, in the case of `CCCC1=C(Br)C(=O)N(c2noc(C(C)(C)C#N)c2C#N)C1OC(=O)CC` (stereo not drawn) [A74] it was 4; in that of `CC(=O)OC1C(C)=C(Cl)C(=O)N1c1cc(C(C)(C)C)on1` (stereo not drawn) [A75], 4.
Still for that read-out and setting: in the case of `CC1=C(Cl)C(=O)N(c2cc(C(C)(C)C)on2)C1OC(=O)C(C)C` (stereo not drawn) [A76] it was 4; in that of `CC1=C(Cl)C(=O)N(c2cc(C(C)(C)C)on2)C1OC(=O)C(C)(C)C` (stereo not drawn) [A77], 1.

Still in this assay, the particulars now being: AMARE, application pre-emergence, rate 1000 g/Ha, scale 0-5.
Turning to `CCCC1=C(Cl)C(=O)N(c2noc(C(C)C)c2C#N)C1O` (stereo not drawn) [A69], the “Pre-emergence herbicidal damage score, AMARE” value amounted to 2.
For `CCCC1=C(Cl)C(=O)N(c2noc(C)c2C#N)C1O` (stereo not drawn) [A70], the “Pre-emergence herbicidal damage score, AMARE” value was 5.
The same measure, in the same setting: in the case of `CCCC1=C(Br)C(=O)N(c2noc(C(C)(C)C#N)c2C#N)C1OC(=O)CC` (stereo not drawn) [A74] it was 5; in that of `CC(=O)OC1C(C)=C(Cl)C(=O)N1c1cc(C(C)(C)C)on1` (stereo not drawn) [A75], 5; in that of `CC1=C(Cl)C(=O)N(c2cc(C(C)(C)C)on2)C1OC(=O)C(C)C` (stereo not drawn) [A76], 5.
The same measure, in the same setting: in the case of `CC1=C(Cl)C(=O)N(c2cc(C(C)(C)C)on2)C1OC(=O)C(C)(C)C` (stereo not drawn) [A77] it was 4.

The same assay, now with this note: ECHCG, application pre-emergence, rate 1000 g/Ha, scale 0-5.
As for `CCCC1=C(Cl)C(=O)N(c2noc(C(C)C)c2C#N)C1O` (stereo not drawn) [A69], the “Pre-emergence herbicidal damage score, ECHCG” value worked out at 1.
The same measure, in the same setting: in the case of `CCCC1=C(Cl)C(=O)N(c2noc(C)c2C#N)C1O` (stereo not drawn) [A70] it was 4; in that of `CCCC1=C(Br)C(=O)N(c2noc(C(C)(C)C#N)c2C#N)C1OC(=O)CC` (stereo not drawn) [A74], 5; in that of `CC(=O)OC1C(C)=C(Cl)C(=O)N1c1cc(C(C)(C)C)on1` (stereo not drawn) [A75], 4.
The same measure, in the same setting: in the case of `CC1=C(Cl)C(=O)N(c2cc(C(C)(C)C)on2)C1OC(=O)C(C)C` (stereo not drawn) [A76] it was 4; in that of `CC1=C(Cl)C(=O)N(c2cc(C(C)(C)C)on2)C1OC(=O)C(C)(C)C` (stereo not drawn) [A77], 1.

The assay is the same for the next values; noted with them: SETFA, application pre-emergence, rate 1000 g/Ha, scale 0-5.
`CCCC1=C(Cl)C(=O)N(c2noc(C(C)C)c2C#N)C1O` (stereo not drawn) [A69]: the “Pre-emergence herbicidal damage score, SETFA” value was determined as 1.
Still for that read-out and setting: in the case of `CCCC1=C(Cl)C(=O)N(c2noc(C)c2C#N)C1O` (stereo not drawn) [A70] it was 3.
The same measure, in the same setting: in the case of `CCCC1=C(Br)C(=O)N(c2noc(C(C)(C)C#N)c2C#N)C1OC(=O)CC` (stereo not drawn) [A74] it was 5.
Regarding `CC(=O)OC1C(C)=C(Cl)C(=O)N1c1cc(C(C)(C)C)on1` (stereo not drawn) [A75], the “Pre-emergence herbicidal damage score, SETFA” value was 4.
On the same count and under the same terms, in the case of `CC1=C(Cl)C(=O)N(c2cc(C(C)(C)C)on2)C1OC(=O)C(C)C` (stereo not drawn) [A76] it was 4.
On the same count and under the same terms, in the case of `CC1=C(Cl)C(=O)N(c2cc(C(C)(C)C)on2)C1OC(=O)C(C)(C)C` (stereo not drawn) [A77] it was 2.

Staying with this assay, now noted: ZEAMX, application pre-emergence, rate 1000 g/Ha, scale 0-5.
For the compound `CCCC1=C(Cl)C(=O)N(c2noc(C(C)C)c2C#N)C1O` (stereo not drawn) [A69], the “Pre-emergence herbicidal damage score, ZEAMX” value came to 0.
Still for that read-out and setting: in the case of `CCCC1=C(Cl)C(=O)N(c2noc(C)c2C#N)C1O` (stereo not drawn) [A70] it was 1; in that of `CCCC1=C(Br)C(=O)N(c2noc(C(C)(C)C#N)c2C#N)C1OC(=O)CC` (stereo not drawn) [A74], 4.
Still for that read-out and setting: in the case of `CC(=O)OC1C(C)=C(Cl)C(=O)N1c1cc(C(C)(C)C)on1` (stereo not drawn) [A75] it was 3; in that of `CC1=C(Cl)C(=O)N(c2cc(C(C)(C)C)on2)C1OC(=O)C(C)C` (stereo not drawn) [A76], 3.
Consider `CC1=C(Cl)C(=O)N(c2cc(C(C)(C)C)on2)C1OC(=O)C(C)(C)C` (stereo not drawn) [A77], for which the “Pre-emergence herbicidal damage score, ZEAMX” value came to 1.
